Experimental data taken from patent US20230201030A1, “DISSOLVABLE MEDICAL DEVICE FOR DRUGS DELIVERY” (Alcon Inc., priority 2021, published 2023).

Tested on: pupil
Assay: Response behavior of phenylephrine (pupil dilation) delivered in the presence/absence of the polymeric film
Type: in vivo
Details: 0.005% phenylephrine with polymeric film vs 2.5% phenylephrine alone
Protocol: In the groups with such treatments, a 0.1-0.2 g lens was applied to the center of the cornea. 1 drop of dilating agent (phenylephrine) of predetermined concentration was applied at t(0). Size of pupil was measured using a pre-measured device for reference and followed up using the same scale.

CNC[C@H](O)c1cccc(O)c1 [phenylephrine, Phenylephrine]
reduction of drug load at similar efficacy: 500 fold
